16 compounds from US20090093454A1, “Chemical Compounds” (priority 2005, published 2009) can be followed below.

Where a name gives a salt, the structure may show the parent alone.

In one experiment the test system is HIV-1 IIIB. Nature of the experiment: HOS HIV-1 infectivity assay, IIIB strain. The class given is cell-based. As to conditions: Human immunodeficiency virus 1, IIIB, HOS, 96 h, read-out: HOS (3B) (μM). On the procedure: Compounds were profiled against two HIV-1 viruses, the M-tropic (CCR5 utilizing) Ba-L strain and the T-tropic (CXCR4 utilizing) IIIB strain. Both viruses were propagated in human peripheral blood lymphocytes. Compounds were tested for there ability to block infection of the HOS cell line (expressing hCXCR4/hCCR5/hCD4/pHIV-LTR-luciferase) by either HIV-1 Ba-L or HIV-1, IIIB. Compound cytotoxicity was also examined in the absence of virus addition.
HOS cells (expressing hCXCR4/hCCR5/hCD4/pHIV-LTR-luciferase) were harvested and diluted in Dulbeccos modified Eagles media supplemented with 2% FCS and non-essential amino acid to a concentration of 60,000 cells/ml. The cells were plated into 96-well plates (100 ul per well) and the plates were placed in a tissue culture incubator (37° C.; 5% CO2/95% air) for a period of 24 h.
Subsequently, 50 ul of the desired drug solution (4 times the final concentration) was added to each well and the plates were returned to the tissue culture incubator (37° C.; 5% CO2/95% air) for 1 h. Following this incubation 50 ul of diluted virus was added to each well (approximately 2 million RLU per well of virus). The plates were returned to the tissue culture incubator (37° C.; 5% CO2/95% air) and were incubated for a further 96 h.
Following this incubation the endpoint for the virally infected cultures was quantified following addition of Steady-Glo Luciferase assay system reagent (Promega, Madison, Wis.). Cell viability or non-infected cultures was measured using a CellTiter-Glo luminescent cell viability assay system (Promega, Madison, Wis.). All luminescent readouts are performed on a Topcount luminescence detector (Packard, Meridien, Conn.).
Compounds were profiled against two HIV-1 viruses, the M-tropic (CCR5 utilizing) Ba-L strain and the T-tropic (CXCR4 utilizing) IIIB strain. Ba-L was propagated in either peripheral blood lymphocytes or SupT1/CCR5+/CXCR4+ cells. IIIB was propagated in peripheral blood lymphocytes. Compounds were tested for their ability to block infection of the HOS cell line (expressing hCXCR4/hCCR5/hCD4/pHIV-LTR-luciferase) by either HIV-1 Ba-L or HIV-1, IIIB. Compound cytotoxicity was also examined in the absence of virus addition.
HOS cells (expressing hCXCR4/hCCR5/hCD4/pHIV-LTR-luciferase) were harvested and diluted in Dulbeccos modified Eagles media supplemented with 2% FCS to a concentration of 120,000 cells/ml. The cells were plated into 96-well plates (50 μl per well) and the plates were placed in a tissue culture incubator (370° C.; 5% CO2/95% air) for a period of 24 h.
Subsequently, 50 μl of the desired drug solution (2 times the final concentration) was added to each well and the plates were returned to the tissue culture incubator (370° C.; 5% CO2/95% air) for 1 h. Following this incubation, 60 μl of diluted virus (4 times the final concentration) was added to 60 μl of 2× the final desired concentration of the compound and 100 μl of this compound/virus mix was added to each well (approximately 2 million RLU per well of virus). The plates were returned to the tissue culture incubator (370° C.; 5% CO2/95% air) and were incubated for a further 96 h.
Take `c1cnc2c(c1)CC[C@H]1CCCN(Cc3nc4ccccc4[nH]3)[C@H]21` (racemic) [Example 6, (trans)-1-(1H-Benzimidazol-2-ylmethyl)-1,2,3,4,4a,5,6,10b-octahydro-1,10-phenanthroline]: the IC50 came out at 0.47 µM.

As to `c1cnc2c(c1)CC[C@@H]1CCCN(Cc3nc4ccccc4[nH]3)[C@H]21` (racemic) [Example 7, (cis)-1-(1H-Benzimidazol-2-ylmethyl)-1,2,3,4,4a,5,6,10b-octahydro-1,10-phenanthroline], the IC50 is 1 µM.

The same experiment, now with this note: Human immunodeficiency virus 1; T-tropic (CXCR4 utilizing) IIIB strain, HOS cells, 96 h, luciferase; read-out: HOS (3B).
For `CN1CCN(c2cccc3nc(CN4CCC[C@@H]5CCc6cccnc6[C@@H]54)cn23)CC1` [Example 22, (4aS,10bR)-1-{[5-(4-Methyl-1-piperazinyl)imidazo[1,2-a]pyridin-2-yl]methyl}-1,2,3,4,4a,5,6,10b-octahydro-1,10-phenanthroline], the IC50 was 0.1 µM.

In the case of `CN(C)CCCn1c(CN2CCC[C@@H]3CCc4cccnc4[C@@H]32)nc2ccccc21` [Example 11A, (3-{2-[(4aS,10bR)-3,4,4a,5,6,10b-Hexahydro-1,10-phenanthrolin-1(2H)-ylmethyl]-1H-benzimidazol-1-yl}propyl)dimethylamine], the IC50 is 0.53 µM.

Take `NCCCn1c(CN2CCC[C@@H]3CCc4cccnc4[C@H]32)nc2ccccc21` (racemic) [Example 8, (trans)-3-[2-(3,4,4a,5,6,10b-Hexahydro-1,10-phenanthrolin-1(2H)-ylmethyl)-1H-benzimidazol-1-yl]-1-propanamine]: the IC50 came out at 0.22 µM.

Regarding `CN(C)CCCn1c(CN2CCC[C@H]3CCc4cccnc4[C@H]32)nc2ccccc21` [Example 11B, (3-{2-[(4aR,10bS)-3,4,4a,5,6,10b-Hexahydro-1,10-phenanthrolin-1(2H)-ylmethyl]-1H-benzimidazol-1-yl}propyl)dimethylamine], the IC50 was determined as 0.035 µM.

Turning to `c1cnc2c(c1)CC[C@@H]1CCCN(Cc3nc4ccccc4n3Cc3ccncc3)[C@H]21` (racemic) [Example 12, (cis)-1-{[1-(4-Pyridinylmethyl)-1H-benzimidazol-2-yl]methyl}-1,2,3,4,4a,5,6,10b-octahydro-1,10-phenanthroline], the IC50 is 0.77 µM.

On to `CN1CCN(c2cccc3[nH]c(CN4CCC[C@@H]5CCc6cccnc6[C@H]54)nc23)CC1` (racemic) [Example 32, (trans)-1-{[4-(4-Methyl-1-piperazinyl)-1H-benzimidazol-2-yl]methyl}-1,2,3,4,4a,5,6,10b-octahydro-1,10-phenanthroline trifluoroacetate], for which the IC50 came to 0.26 µM.

Consider `CN(C)CCCn1c(CN2CCC[C@@H]3CCc4cccnc4[C@H]32)nc2ccccc21` (stereo in doubt) [Example 10B, (3-{2-[(4aS,10bS)-3,4,4a,5,6,10b-Hexahydro-1,10-phenanthrolin-1(2H)-ylmethyl]-1H-benzimidazol-1-yl}propyl)dimethylamine], for which the IC50 was 0.14 µM.

`CN1CCN(c2cccc3nc(CN4CCC[C@H]5CCc6cccnc6[C@H]54)cn23)CC1` [Example 27, (4aR,10bS)-1-{[5-(4-Methyl-1-piperazinyl)imidazo[1,2-a]pyridin-2-yl]methyl}-1,2,3,4,4a,5,6,10b-octahydro-1,10-phenanthroline]: the IC50 was found to be 0.004 µM.

Turning to `CN1CCN(c2cccc3nc(CN4CCC[C@@H]5CCc6cccnc6[C@H]54)cn23)CC1` (racemic) [Example 15A, (trans)-1-{[5-(4-Methyl-1-piperazinyl)imidazo[1,2-a]pyridin-2-yl]methyl}-1,2,3,4,4a,5,6,10b-octahydro-1,10-phenanthroline], the IC50 came to 0.033 µM.

`CN1CCN(c2cccc3nc(CN4CCC[C@H]5CCc6cccnc6[C@H]54)cn23)CC1` (racemic) [Example 15B, (cis)-1-{[5-(4-Methyl-1-piperazinyl)imidazo[1,2-a]pyridin-2-yl]methyl}-1,2,3,4,4a,5,6,10b-octahydro-1,10-phenanthroline]: the IC50 was determined as 0.004 µM.

Turning to `CN1CCCC(Cn2c(CN3CCC[C@H]4CCc5cccnc5[C@H]43)nc3ccccc32)C1` (mixture of isomers) [Example 13, (cis)-1-({1-[(1-Methyl-3-piperidinyl)methyl]-1H-benzimidazol-2-yl}methyl)-1,2,3,4,4a,5,6,10b-octahydro-1,10-phenanthroline], the IC50 worked out at 0.05 µM.

For the compound `NCCCn1c(CN2CCC[C@H]3CCc4cccnc4[C@H]32)nc2ccccc21` (racemic) [Example 9, (cis)-3-[2-(3,4,4a,5,6,10b-Hexahydro-1,10-phenanthrolin-1(2H)-ylmethyl)-1H-benzimidazol-1-yl]-1-propanamine], the IC50 is 0.073 µM.

Regarding `CN1CCN(c2cccc3nc(CN4CCC[C@H]5CCc6cccnc6[C@H]54)[nH]c23)CC1` (racemic) [Example 33, (cis)-1-{[4-(4-Methyl-1-piperazinyl)-1H-benzimidazol-2-yl]methyl}-1,2,3,4,4a,5,6,10b-octahydro-1,10-phenanthroline], the IC50 was determined as 0.0035 µM.

Regarding `CN(C)CCCn1c(CN2CCC[C@H]3CCc4cccnc4[C@@H]32)nc2ccccc21` (stereo in doubt) [Example 10A, (3-{2-[(4aR,10bR)-3,4,4a,5,6,10b-Hexahydro-1,10-phenanthrolin-1(2H)-ylmethyl]-1H-benzimidazol-1-yl}propyl)dimethylamine], the IC50 came out at 0.33 µM.
